The record followed here is US10544090B2, “Anthraquinone analogs and methods of making and using thereof” (Georgia State University Research Foundation, Inc., priority 2012, dated 2020).

Series [1] has as its system HeLa. Nature of the series: MTT cytotoxicity assay, HeLa (Table 2). How it is done:
(§1) The in vitro cytotoxicity studies of the synthesized compounds were performed in three different cell lines (HeLa, Hek, and KB). The activities of the herein described analogues were compared to that of rhein itself and doxorubicin. Due to the poor solubility of the compounds, all of the solutions used for biological testing were prepared using DMSO as solvent.
(Tetrazolium assays rely on reduction of a dye to a coloured formazan, in cell work by metabolically active cells.)

A further series deals with Hek. The series is described as follows: MTT cytotoxicity assay, Hek (Table 2). The series is classed as cell-based. The conditions noted are these: for IC50: read-out: IC50 (μM) against Hek. As for the experimental part: as §1
The subject of a further series is KB. The series is described as follows: MTT cytotoxicity assay, KB (Table 2). The series is classed as cell-based. The conditions noted are these: 48 h incubation; for IC50: read-out: IC50 (μM) against KB. How it is done: as §1
Series [2] deals with HeLa. Nature of the series: MTT cytotoxicity evaluation of series 1 and 2 rhein analogues, HeLa (Tables 3, 4). The conditions noted are these: Homo sapiens, HeLa; MTT; Tables 3 and 4; read-out: IC50 (μM) against HeLa. The series is classed as cell-based.
A further series relates to MOLT4. The series is described as follows: MTT cytotoxicity evaluation of series 1 and 2 rhein analogues, MOLT4 (Tables 3, 4). To be noted: Homo sapiens, MOLT-4, read-out: IC50 (μM) against MOLT4.
Another series relates to human NBMM cells. Nature of the series: WST cytotoxic assay on normal bone marrow mononuclear cells. The series is classed as cell-based. The conditions noted are these: concentration of 1-2 μM. How it is done:
FIGS. 2a-2i are graphs showing the cytotoxicity of various Rhein analogues. Acute lymphoblastic leukemia (ALL) cell lines EU-1 (p53 normal) and EU-8 (p53 null) as well as normal human BM stroma cells were incubated with different concentrations of Rhein analogues as indicated for 24 h. Viability of cells was detected by Water soluble Tetrazolium (WST) dye assay. Data represent the mean percentage ±SD of the surviving cells (as compared to untreated controls) from three independent experiments.
The cytotoxic and inhibitory effects of the compounds described herein on normal human BM cells in vitro, as compared with doxorubicin was evaluated.

For the next series, the system named is mice. The series is described as follows: Toxicity in mice. The series is classed as in vivo. To be noted: single injection at a dose of 15/kg. How it is done: FIG. 6 is a table showing the estimated treatment doses and maximum tolerated dose (MTD) of MG1 in mice as compared with doxorubicin.
Toxicity was also evaluated in mice. […] Subsequently, a single injection of MG1 at a dose of 400 mg/kg was administered via injection.
[…]. Toxicity was also evaluated in mice. […] Subsequently, a single injection of MG1 at a dose of 400 mg/kg was administered via injection.

The next series relates to DNA damage. Nature of the series: Comet images, mechanism of cancer cell death. The series is classed as cell-based.
Setting [3] is: Homo sapiens, HeLa, 48 h, read-out: IC50 (μM) against HeLa, MTT, 48 h incubation, Table 2.
Where [4] appears, read: read-out: IC50 (μM) against HeLa, MTT, 48 h incubation, Table 2.
[5] abbreviates: Homo sapiens, HEK293, 48 h incubation.

Like-named read-outs stand apart in the source and are kept apart here.

By IC50 is commonly meant the concentration that inhibits the measured activity by half.

Consider `O=C(O)c1cc(O)c2c(c1)C(=O)c1cccc(O)c1C2=O` [Rhein, reference compound], for which the IC50 in the series with HeLa [1] (setting [3]) is 100 µM; in the series with HeLa [1] (setting [4]), more than 100 µM; in the series on Hek (setting [5]), more than 100 µM; in the series with KB, more than 100 µM; in the series on KB (Homo sapiens, KB, 48 h), not below 100 µM; with HeLa [2] it was more than 100 µM. In addition, in the series with MOLT4, the IC50 is 37 µM.
`COc1cccc2c1C(=O)c1c(OC)cc(NC(=O)CI)cc1C2=O` [Compound 14, 1,8-dimethoxy-3-(2′-iodo-acetamido)-anthraquinone]: the IC50 came out at 2.5 µM in the series with HeLa [1] (setting [3]); 1.4 µM in the series with Hek (setting [5]); 10 µM with KB (Homo sapiens, KB, 48 h). Besides, in the series on HeLa [1] (MTT, 48 h incubation, Table 2), the “IC50 (μM) against HeLa” value was “low micro molar”. In the series on HeLa [1] (in words), the “cytotoxicity against HeLa cells compared to rhein” value is on record as “significant improvement”. In addition, in the series on Hek (48 h incubation), the “IC50 (μM) against Hek” value is “low micro molar”. Also, the “IC50 (μM) against KB” value with KB is listed as “low micro molar”.
For the molecule `COc1cccc2c1C(=O)c1c(O)c3c(c(O)c1C2=O)C[C@@](O)(C(=O)CO)C[C@@H]3O[C@H]1C[C@H](N)[C@H](O)[C@H](C)O1` [Doxorubicin, reference compound], the IC50 in the series with HeLa [1] (setting [3]) was found to be 1.4 µM; with HeLa [1] (setting [4]), 1.5 µM; in the series on Hek (setting [5]), 0.15 µM; with KB (Homo sapiens, KB), 0.4 µM; in the series with HeLa [2], 0.98 µM; in the series on MOLT4, 0.04 µM. In addition, in the series on human NBMM cells, the “human NBMM cells survived after treatment” value is listed as 40-50%. For the same molecule, the death of mice result in the series with mice was “death of all mice at day 7 due to cardiac toxicity”. Moreover, the “mechanism of cancer cell death (DNA damage)” value in the series with DNA damage is given as “induces cancer cell death through DNA damage”.
Turning to `O=C(CBr)Nc1cc(O)c2c(c1)C(=O)c1cccc(O)c1C2=O` [Compound 6, 1,8-Dihydroxy-3-(2′-bromo-acetamido)-anthraquinone], the 50% inhibitory concentration (IC50) in the series with HeLa [1] (setting [3]) worked out at 40 µM; in the series on Hek (setting [5]), 8 µM; in the series on KB (Homo sapiens, KB, 48 h), 15 µM. The “times more potent than rhein against HeLa” value in the series with HeLa [1] (ratio of IC50 values) was found to be 2.5 fold.
Take `O=C(CI)Nc1cc(O)c2c(c1)C(=O)c1cccc(O)c1C2=O` [Compound 7, 1,8-Dihydroxy-3-(2′-iodo-acetamido)-anthraquinone]: the IC50 came to 10 µM in the series on HeLa [1] (setting [3]); 2 µM in the series with Hek (setting [5]); 9 µM in the series with KB (Homo sapiens, KB, 48 h); 17 µM in the series with HeLa [2]; 10 µM in the series with MOLT4.
With `O=C(CCl)NCCCOCCOCCOCCCNC(=O)c1cc(O)c2c(c1)C(=O)c1cccc(O)c1C2=O` [Compound 21, 1,8-Dihydroxy-3-(18′-chloro-aceta-6′,9′,12′-trioxa-2′,16′-tridecanediamido)-anthraquinone], the IC50 was 14 µM with HeLa [1] (setting [4]), 8 µM with Hek (48 h incubation) and 21 µM in the series with KB.
